Columns and labels:
[1] = Nitric oxide scavenging assay; assay type: biochemical; settings: for % Inhibition nitric oxide: 546 nm
Protocol: All samples were evaluated for their scavenging ability with the help of UV-visible spectrophotometer at different concentrations of 40, 80, 120, 160, 200, and 240 μM [6, 28]. While performing the antioxidant properties for the DPPH, hydroxyl, superoxide, and nitric oxide radical scavenging, the absorbance at 517, 230, 590, and 546 nm, respectively, was closely observed. In addition, the observed IC50 values of all samples were compared with ascorbic acid.
The diffusible nitric oxide free radical is a crucial chemical mediator, which assists in overcoming diverse chronological human diseases. The NO free radical scavenging potential for all test samples was also carried out at 546 nm. It monitored the alterations in electronic absorption intensity of the nitric oxide radical inhibition outcome concerning the sample concentrations. When the test sample concentration rises, the nitric oxide free inhibition effectiveness also increases. The measured % of nitric oxide radical scavenging capability for all samples at 240 μM was obtained in the subsequent order (ascorbic acid) 72.73 > (1a) 65.47 > (2a) 58.43 > (HL) 51.62.

[2] = test system: CT-DNA; experiment: DNA binding by cyclic voltammetry; set-up: species or system calf thymus; settings: for K[red]/K[oxi], (calcd): Nernst equation; for K[red]/K[oxi], found (I): from method I; for S (bp), binding site size: method II; for Kb method I, (oxi): oxidation; for Kb method I, red: reduction; for Es° = (Eb° − Ef°): shift of formal potential on DNA binding
Protocol: The CV titration for free substances was conducted at 10 μM at 25°C in the presence of Tris-HCl buffer solution (pH: 7.4). While CT-DNA increases (0–10 μM) in each sample solution, a shift in potential, including variations in the peak currents of anodic and cathodic sides, has been monitored.
The CV technique is one of the most important tools for investigating the DNA-complex adduct's binding mechanism. The CV properties of all test samples in the presence and absence of DNA were executed at a scan rate (v) 0.1 Vs^−1 with a potential range of +2 to −2 in a Tris-HCl (5 mM)/NaCl (50 mM) (pH = 7.2) solution. The M^1+/M^2+ redox couple is caused by complexes that reveal a single anodic and cathodic peak. […] (Figure S29 and Table 6).
ΔEP is peak-to-peak separation = (EPa − EPc); E°(or) E1/2 is denoted as formal electrode potential = 1/2 (EPa + EPc); Es°=(Eb° − Ef°)Eb° and Ef° are represented as the formal electrode potential of the M^1+/M^2+ couple in the bound and free forms, respectively. Es° = +19 mV (HL), +34 mV (1a), and +31 mV (2a). Ipa is anodic peak current, Ipc is cathodic peak current. K^1+ is binding constant of reduction process, K^2+ is binding constant of oxidation process, S is represented as binding site size of base pairs (bp) with a molecule of complex, Scan rate is 100 mV·s^−1, binding constant (Kb) values observed from the linear plots of log (1/[DNA]) vs. log (I/I0 − I) for oxidation and reduction, (I0 − IDNA)/IDNA = Cp/Cf versus [DNA] and Ip ^2 versus (Ipo ^2 −Ip ^2 )/[DNA] by methods I, II, and III, respectively.(24) DiffusioncoefficientD0=7.51×10^−5 SlopelogI0 −I/I=log DNA+logKb, where I0 and I are represented as the peak currents of the compound in the absence and presence of DNA.(25) log DNA=logI0 −I/I+log1/Kb log1/DNA=logI/I0−I+logKb, (26) I0 −I/I=KbDNA, (27) I0 −I/I=Cb/Cf, where Cf and Cb are denoted as the free substance concentration and DNA-interacted compound, respectively. (29) was obtained by comparing equations (27) and (28).(28) Cb/Cf=KbDNA, (29) Cb/Cf=Kbfreebasrpairs/S , (30) Cb/Cf=KbDNA/2 S +1.
S is denoted as binding site size (bp), and Kb are estimated from (31) with the help of S = (intercept/4)^1/2 and (Kb = 2S (slope/intercept), respectively. Nernst equations are as follows:(31) Es°=Eb°−Ef°=0.0591 /n logKred/Koxi, (32) Kred/Koxi=Ant. log nEb°−Ef°/0.0591.
E 1/2 or Eb° and Ef° are the formal electrode potentials of the M^1+/M^2+ couple in their bound and free forms, respectively.(33) Ip 2 =1/KbDNAIp0 2 −Ip 2 +Ip0 2 −DNA, where Ipo and Ip are denoted as the peak currents of the complexes (1–3) in the absence and presence of DNA.(34) Ipa=2.69×10^5 n^3/2 α^1/2 AC0 ∗D0 1/2 v^1/2 , (35) Ipa=13314.7D0 1/2 v^1/2 , where Ipa is denoted as the anodic peak current in amperes, n is represented as the number of electrons participating in the redox (M^1+/M^2+) process (n = 1), charge transfer coefficient (or) activation coefficient (α)≈0.5 for quasireversible systems, which also calculated from Bard–Faulkner relation(35a) α=47.7/EPa−EP/2.
C0^∗ ⟶ Bulk concentration of the compound, A is denoted as the cross-sectional area of the working electrode (glassy carbon) in cm^2 (A∼0.07 cm^2), D0 is denoted as diffusion coefficient (cm^2 s^−1) of the M^1+/M^2+ couple in the free and bound forms, respectively, and v is denoted as the potential scan rate at 0.1 Volt·s^−1. While the substances often bind to deoxyribonucleic acid through intercalation, the peak potential shifts in a positive direction. When the compounds bind to deoxyribonucleic acid via minor or major grooves or electrostatic attractions, the peak potential shifts occur in a negative direction. […]

With `[O-]c1ccccc1N=Cc1ccc(N2CCOCC2)cc1.[O-]c1ccccc1N=Cc1ccc(N2CCOCC2)cc1.[Zn+2].c1ccc(-c2ccccn2)nc1` [(2a), [Zn(L)2(bpy)]] the “% Inhibition nitric oxide” value ([1]; 40 µM) was 14.37%, the “% Inhibition nitric oxide” value ([1]; 80 µM) was 21.59% and the “% Inhibition nitric oxide” value ([1]; 120 µM) was 28.87%. The “% Inhibition nitric oxide” value ([1]; 160 µM) was 37.69%, the “% Inhibition nitric oxide” value ([1]; 200 µM) was 44.73% and the “% Inhibition nitric oxide” value ([1]; 240 µM) was 58.43%. For the same compound, the “Kb method II” value [2] was 27693 M⁻¹, the “Kb method III” value [2] was 18486 M⁻¹ and the “K[red]/K[oxi], (calcd)” value [2] was 3.34. For the same compound, the “K[red]/K[oxi], found (I)” value [2] was 0.8268, the “S (bp), binding site size” value [2] was 0.270 bp and the “Kb method I, (oxi)” value [2] was 24610 M⁻¹. The “Kb method I, red” value [2] was 20348 M⁻¹ and the “Es° = (Eb° − Ef°)” value [2] was “+31 mV”.
With `Oc1ccccc1N=Cc1ccc(N2CCOCC2)cc1` [(HL), 2-(4-morpholinobenzylideneamino)phenol] the “% Inhibition nitric oxide” value ([1]; 40 µM) was 11.42%, the “% Inhibition nitric oxide” value ([1]; 80 µM) was 18.26% and the “% Inhibition nitric oxide” value ([1]; 120 µM) was 24.28%. For the same compound, the “% Inhibition nitric oxide” value ([1]; 160 µM) was 33.21%, the “% Inhibition nitric oxide” value ([1]; 200 µM) was 40.53% and the “% Inhibition nitric oxide” value ([1]; 240 µM) was 51.62%. For the same compound, the “Kb method II” value [2] was 2443 M⁻¹, the “Kb method III” value [2] was 4837 M⁻¹ and the “K[red]/K[oxi], (calcd)” value [2] was 2.0964. The “K[red]/K[oxi], found (I)” value [2] was 0.7214, the “S (bp), binding site size” value [2] was 0.452 bp and the “Kb method I, (oxi)” value [2] was 5280 M⁻¹. For the same compound, the “Kb method I, red” value [2] was 3809 M⁻¹ and the “Es° = (Eb° − Ef°)” value [2] was “+19 mV”.
With `[Cu+2].[O-]c1ccccc1N=Cc1ccc(N2CCOCC2)cc1.[O-]c1ccccc1N=Cc1ccc(N2CCOCC2)cc1.c1ccc(-c2ccccn2)nc1` [(1a), [Cu(L)2(bpy)]] the IC50 [1] was 200 µM, the “% Inhibition nitric oxide” value ([1]; 40 µM) was 17.07% and the “% Inhibition nitric oxide” value ([1]; 80 µM) was 24.95%. For the same compound, the “% Inhibition nitric oxide” value ([1]; 120 µM) was 35.06%, the “% Inhibition nitric oxide” value ([1]; 160 µM) was 42.14% and the “% Inhibition nitric oxide” value ([1]; 200 µM) was 51.35%. The “% Inhibition nitric oxide” value ([1]; 240 µM) was 65.47%, the “Kb method II” value [2] was 70773 M⁻¹ and the “Kb method III” value [2] was 21567 M⁻¹. For the same compound, the “K[red]/K[oxi], (calcd)” value [2] was 3.76, the “K[red]/K[oxi], found (I)” value [2] was 0.8628 and the “S (bp), binding site size” value [2] was 0.123 bp. For the same compound, the “Kb method I, (oxi)” value [2] was 25330 M⁻¹, the “Kb method I, red” value [2] was 21854 M⁻¹ and the “Es° = (Eb° − Ef°)” value [2] was “+34 mV”.

From publication PMC9763021, “Comprehensive Assessment of Biomolecular Interactions of Morpholine-Based Mixed Ligand Cu(II) and Zn(II) Complexes of 2,2′-Bipyridine as Potential Anticancer and SARS-CoV-2 Agents: A Synergistic Experimental and Structure-Based Virtual Screening” (Bioinorganic Chemistry and Applications, 2022)
